Assay results: ChEMBL document CHEMBL1156134, “2-Amino-5-aryl-pyridines as selective CB2 agonists: synthesis and investigation of structure-activity relationships” (Bioorg Med Chem Lett, 2009)

Experiments:
Cannabinoid receptor 2 [1] = target: T1, Cannabinoid receptor 2 (Homo sapiens, UniProt P34972); experiment: Agonist activity at human CB2 receptor expressed in yeast cells; type: functional, cell-based
Cannabinoid receptor 2 [2] = target: T1, Cannabinoid receptor 2; experiment: Agonist activity at human CB2 receptor expressed in yeast cells relative to HU210; type: functional, cell-based
Liver microsomes = experiment: Clearance in rat liver microsomes; type: ADME, Microsome
Cannabinoid receptor 1 [3] = target: T2, Cannabinoid receptor 1 (Homo sapiens, UniProt P21554); experiment: Agonist activity at human CB1 receptor expressed in yeast cells; type: functional, cell-based
T2 sequence (P21554 whole entry): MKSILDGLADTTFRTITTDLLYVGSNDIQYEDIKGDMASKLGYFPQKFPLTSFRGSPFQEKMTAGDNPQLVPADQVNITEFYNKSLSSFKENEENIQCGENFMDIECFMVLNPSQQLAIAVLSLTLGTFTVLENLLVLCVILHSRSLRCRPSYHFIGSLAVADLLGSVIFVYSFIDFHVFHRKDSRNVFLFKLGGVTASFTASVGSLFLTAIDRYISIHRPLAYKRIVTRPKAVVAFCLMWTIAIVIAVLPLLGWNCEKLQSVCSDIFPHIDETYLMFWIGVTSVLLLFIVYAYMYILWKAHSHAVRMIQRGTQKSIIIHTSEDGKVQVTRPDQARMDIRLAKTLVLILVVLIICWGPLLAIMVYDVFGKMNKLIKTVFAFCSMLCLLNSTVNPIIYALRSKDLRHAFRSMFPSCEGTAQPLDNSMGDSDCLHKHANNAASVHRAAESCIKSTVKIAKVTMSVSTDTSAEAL

Cannabinoid receptor 1 [4] = target: T2, Cannabinoid receptor 1; experiment: Agonist activity at human CB1 receptor expressed in yeast cells relative to HU210; type: functional, cell-based

T1 sequence (P34972 whole entry): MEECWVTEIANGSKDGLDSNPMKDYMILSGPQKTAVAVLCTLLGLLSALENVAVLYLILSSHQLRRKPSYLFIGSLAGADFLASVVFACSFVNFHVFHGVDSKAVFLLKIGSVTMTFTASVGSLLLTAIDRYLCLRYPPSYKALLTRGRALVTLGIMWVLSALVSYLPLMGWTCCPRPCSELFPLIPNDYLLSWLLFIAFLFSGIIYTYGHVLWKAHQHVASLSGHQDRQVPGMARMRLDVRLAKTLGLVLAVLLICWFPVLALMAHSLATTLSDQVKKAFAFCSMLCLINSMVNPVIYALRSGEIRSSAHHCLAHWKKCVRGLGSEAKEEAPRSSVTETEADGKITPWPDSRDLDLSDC

SMILES | EC50 (Cannabinoid receptor 2 [1]) [nM] | Efficacy (Cannabinoid receptor 2 [2]) [%] | CL (Liver microsomes) [mL/min/g] | EC50 (Cannabinoid receptor 1 [3]) [nM] | Efficacy (Cannabinoid receptor 1 [4]) [%]
Clc1cccnc1-c1ccc(N2CCCCCC2)nc1 | 501 | 103 | – | – | –
O=C1CCC(=O)N1c1ccc(-c2cccc(Cl)c2Cl)cn1 | 3980 | 19 | – | – | –
Cc1c(Cl)cccc1-c1ccc(N2CCOCC2)nc1 | 501 | 73 | – | – | –
c1cc2occc2c(-c2ccc(N3CCCCCC3)nc2)n1 | 63.1 | 80 | > 50 | – | –
C[C@@H]1CC[C@H](C)N1c1ccc(-c2cccc(Cl)c2Cl)cn1 | 251 | 37 | 11 | – | –
CC1CC(C)CN(c2ccc(-c3cccc(Cl)c3Cl)cn2)C1 (stereo not given) | 501 | 73 | – | – | –
Clc1cccc(-c2ccc(N3CCCCCC3)nc2)c1Cl | 39.8 | 104 | 30 | 10000 | 4
Clc1cnc(-c2ccc(N3CCCCCC3)nc2)c(Cl)c1 | 316 | 100 | – | – | –
Clc1cccc(-c2ccc(N3CCOCC3)nc2)c1 | 1000 | 20 | – | – | –
O=C(O)c1cc(-c2cccc(Cl)c2Cl)cnc1N1CCCCCC1 | 1580 | 41 | – | > 31600 | –
Clc1ccccc1-c1ccc(N2CCOCC2)nc1 | 398 | 43 | – | – | –
c1ccc(-c2ccc(N3CCCCCC3)nc2)nc1 | 10000 | 29 | – | – | –
O=C1CCCN1c1ccc(-c2cccc(Cl)c2Cl)cn1 | 251 | 59 | – | – | –
N#Cc1cc(-c2cccc(Cl)c2Cl)cnc1N1CCCCCC1 | 3980 | 41 | – | > 31600 | –
FC(F)(F)c1cc(-c2cccc(Cl)c2Cl)cnc1N1CCCCCC1 | 6310 | 12 | – | > 31600 | –
FC(F)(F)c1cc(N2CCCCCC2)ncc1-c1cccc(Cl)c1Cl | 2510 | 79 | – | > 31600 | –
Clc1cccc(-c2ccc(N3CCCOCC3)nc2)c1Cl | 63.1 | 87 | 27 | – | –

SMILES | EC50 (Cannabinoid receptor 2 [1]) [nM] | Efficacy (Cannabinoid receptor 2 [2]) [%] | CL (Liver microsomes) [mL/min/g] | EC50 (Cannabinoid receptor 1 [3]) [nM] | Efficacy (Cannabinoid receptor 1 [4]) [%]
N#Cc1cccnc1-c1ccc(N2CCCCCC2)nc1 | 398 | 75 | – | – | –
Clc1ccc(Cl)c(-c2ccc(N3CCOCC3)nc2)c1 | 631 | 25 | – | – | –
N#Cc1cc(N2CCCCCC2)ncc1-c1cccc(Cl)c1Cl | 100 | 86 | > 50 | 10000 | 13
CCCCNc1ccc(-c2cccc(Cl)c2Cl)cn1 | 79.4 | 88 | – | – | –
Nc1cccnc1-c1ccc(N2CCCCCC2)nc1 | 1000 | 91 | – | – | –
Clc1ccc(-c2ccc(N3CCOCC3)nc2)cc1Cl | 3980 | 11 | – | – | –
Cc1cnc(-c2ccc(N3CCCCCC3)nc2)c(C)c1 | 1260 | 102 | – | – | –
Cc1ccc(N)c(-c2ccc(N3CCCCCC3)nc2)n1 | 126 | 86 | – | – | –
CN(C)C(=O)c1cc(-c2cccc(Cl)c2Cl)cnc1N1CCCCCC1 | 794 | 37 | – | > 31600 | –
Clc1ccc(-c2ccc(N3CCOCC3)nc2)c(Cl)c1 | > 31600 | – | – | – | –
Clc1ccc(-c2ccc(N3CCCCCC3)nc2)nc1 | 100 | 101 | 13 | – | –
Fc1cccc(-c2ccc(N3CCOCC3)nc2)c1F | 251 | 58 | – | – | –
O=C(c1cc(-c2cccc(Cl)c2Cl)cnc1N1CCCCCC1)N1CCOCC1 | 79.4 | 67 | > 50 | 10000 | 0.19
Clc1cccc(-c2ccc(N3CCOCC3)nc2)c1Cl | 79.4 | 88 | 9.5 | – | –
Cc1cccnc1-c1ccc(N2CCCCCC2)nc1 | 794 | 86 | – | – | –
Fc1ccc(-c2ccc(N3CCOCC3)nc2)c(F)c1 | > 31600 | – | – | – | –
Clc1cccc(-c2ccc(N3CCSCC3)nc2)c1Cl | 158 | 93 | – | – | –
